From ChEMBL document CHEMBL3124838, “Discovery of 6-aryl-azabenzimidazoles that inhibit the TBK1/IKK-ε kinases” (Bioorg Med Chem Lett, 2014)

Assays:
[1] = target: T1, Aurora kinase C (Homo sapiens) (UniProt Q9UQB9); assay: Inhibition of human Aurora-C assessed as residual activity at 1 uM relative to control
T1 sequence (whole entry): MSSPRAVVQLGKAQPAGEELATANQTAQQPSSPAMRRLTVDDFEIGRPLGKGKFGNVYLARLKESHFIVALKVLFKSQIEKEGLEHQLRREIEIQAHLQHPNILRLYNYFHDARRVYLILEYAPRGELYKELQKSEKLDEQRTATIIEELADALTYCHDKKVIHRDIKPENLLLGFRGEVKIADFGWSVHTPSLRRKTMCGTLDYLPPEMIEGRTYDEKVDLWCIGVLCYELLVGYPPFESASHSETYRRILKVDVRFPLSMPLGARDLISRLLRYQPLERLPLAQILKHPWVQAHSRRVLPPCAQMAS

[2] = target: Serine/threonine-protein kinase PLK1 (Homo sapiens) (UniProt P53350); assay: Inhibition of human PLK1 assessed as residual activity at 1 uM relative to control
[3] = target: T2, Dual specificity tyrosine-phosphorylation-regulated kinase 2 (Homo sapiens) (UniProt Q92630); assay: Inhibition of human DYRK2 assessed as residual activity at 1 uM relative to control
T2 sequence (whole entry): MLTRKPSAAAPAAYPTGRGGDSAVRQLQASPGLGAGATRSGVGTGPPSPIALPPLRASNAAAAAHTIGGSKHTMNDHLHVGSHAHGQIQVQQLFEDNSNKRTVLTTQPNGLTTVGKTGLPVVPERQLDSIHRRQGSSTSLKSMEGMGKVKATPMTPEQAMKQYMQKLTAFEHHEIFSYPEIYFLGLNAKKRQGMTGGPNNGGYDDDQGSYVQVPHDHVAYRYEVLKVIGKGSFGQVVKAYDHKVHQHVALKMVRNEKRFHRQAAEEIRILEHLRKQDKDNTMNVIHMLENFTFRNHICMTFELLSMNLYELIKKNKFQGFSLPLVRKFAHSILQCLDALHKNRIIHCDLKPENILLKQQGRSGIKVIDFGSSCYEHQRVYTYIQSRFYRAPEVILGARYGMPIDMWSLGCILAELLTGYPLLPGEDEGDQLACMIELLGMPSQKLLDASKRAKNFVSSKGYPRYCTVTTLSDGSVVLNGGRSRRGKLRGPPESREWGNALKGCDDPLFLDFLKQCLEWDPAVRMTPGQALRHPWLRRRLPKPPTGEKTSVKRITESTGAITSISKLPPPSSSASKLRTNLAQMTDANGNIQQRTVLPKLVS

[4] = target: T3, Tyrosine-protein kinase receptor TYRO3 (Homo sapiens) (UniProt Q06418); assay: Inhibition of human RSE assessed as residual activity at 1 uM relative to control
T3 sequence (whole entry): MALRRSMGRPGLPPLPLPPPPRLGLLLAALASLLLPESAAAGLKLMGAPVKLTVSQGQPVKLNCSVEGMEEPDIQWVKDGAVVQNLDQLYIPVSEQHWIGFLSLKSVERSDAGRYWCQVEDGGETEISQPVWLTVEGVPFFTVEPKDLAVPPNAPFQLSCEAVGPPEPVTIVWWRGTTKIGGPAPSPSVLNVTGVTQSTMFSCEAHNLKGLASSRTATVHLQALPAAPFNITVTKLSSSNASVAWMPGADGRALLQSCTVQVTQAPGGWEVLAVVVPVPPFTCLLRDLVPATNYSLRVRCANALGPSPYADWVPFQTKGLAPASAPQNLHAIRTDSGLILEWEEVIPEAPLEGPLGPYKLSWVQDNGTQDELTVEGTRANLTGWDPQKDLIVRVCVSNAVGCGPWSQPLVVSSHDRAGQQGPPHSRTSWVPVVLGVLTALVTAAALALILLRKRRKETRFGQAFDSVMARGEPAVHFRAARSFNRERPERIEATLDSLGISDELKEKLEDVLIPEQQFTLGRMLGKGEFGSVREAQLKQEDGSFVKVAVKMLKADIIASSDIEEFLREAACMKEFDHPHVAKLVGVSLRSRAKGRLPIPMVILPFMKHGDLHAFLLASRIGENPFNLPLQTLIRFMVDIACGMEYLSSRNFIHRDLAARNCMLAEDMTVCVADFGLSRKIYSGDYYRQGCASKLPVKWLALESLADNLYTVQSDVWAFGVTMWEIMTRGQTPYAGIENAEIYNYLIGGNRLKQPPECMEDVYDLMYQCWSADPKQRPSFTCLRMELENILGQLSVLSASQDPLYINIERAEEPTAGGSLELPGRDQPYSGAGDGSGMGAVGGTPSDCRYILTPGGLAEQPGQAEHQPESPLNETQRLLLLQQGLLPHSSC

[5] = target: T4, Dual specificity mitogen-activated protein kinase kinase 7 (Homo sapiens) (UniProt O14733); assay: Inhibition of human MKK7beta assessed as residual activity at 1 uM relative to control
T4 sequence (whole entry): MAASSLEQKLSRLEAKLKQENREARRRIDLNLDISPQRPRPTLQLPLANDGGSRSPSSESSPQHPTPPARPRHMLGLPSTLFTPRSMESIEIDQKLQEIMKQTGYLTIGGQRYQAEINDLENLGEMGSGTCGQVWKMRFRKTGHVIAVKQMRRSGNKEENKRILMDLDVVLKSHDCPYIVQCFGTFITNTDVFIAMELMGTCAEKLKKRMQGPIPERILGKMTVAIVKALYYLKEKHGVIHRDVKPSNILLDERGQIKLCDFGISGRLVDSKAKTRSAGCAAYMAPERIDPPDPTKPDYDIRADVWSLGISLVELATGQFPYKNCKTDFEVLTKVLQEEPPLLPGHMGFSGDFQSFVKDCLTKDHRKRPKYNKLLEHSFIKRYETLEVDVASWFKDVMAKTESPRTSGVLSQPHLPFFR

[6] = tested on: Proto-oncogene tyrosine-protein kinase receptor Ret (Homo sapiens), P07949 [V804L]; assay: Inhibition of human RET V804L mutant assessed as residual activity at 1 uM relative to control
Homo sapiens = species on record: Homo sapiens; assay: Inhibition of human PKA assessed as residual activity at 1 uM relative to control
[7] = target: Misshapen-like kinase 1 (Homo sapiens) (UniProt Q8N4C8); assay: Inhibition of human MINK assessed as residual activity at 1 uM relative to control
[8] = target: Tyrosine-protein kinase Yes (Homo sapiens) (UniProt P07947); assay: Inhibition of human YES assessed as residual activity at 1 uM relative to control
[9] = target: Macrophage-stimulating protein receptor (Homo sapiens) (UniProt Q04912); assay: Inhibition of human RON assessed as residual activity at 1 uM relative to control
[10] = target: Tyrosine-protein kinase Fer (Homo sapiens) (UniProt P16591); assay: Inhibition of human FER assessed as residual activity at 1 uM relative to control
[11] = target: Serine/threonine-protein kinase PAK 1 (Homo sapiens) (UniProt Q13153); assay: Inhibition of human PAK1 assessed as residual activity at 1 uM relative to control
[12] = target: CDK9/cyclin T1 (Homo sapiens) (UniProt O60563+P50750); assay: Inhibition of human CDK9/cyclin T1 assessed as residual activity at 1 uM relative to control; assay type: protein-complex assay

Serine/threonine-protein kinase PAK 1 (Homo sapiens), sequence (Q13153 whole entry): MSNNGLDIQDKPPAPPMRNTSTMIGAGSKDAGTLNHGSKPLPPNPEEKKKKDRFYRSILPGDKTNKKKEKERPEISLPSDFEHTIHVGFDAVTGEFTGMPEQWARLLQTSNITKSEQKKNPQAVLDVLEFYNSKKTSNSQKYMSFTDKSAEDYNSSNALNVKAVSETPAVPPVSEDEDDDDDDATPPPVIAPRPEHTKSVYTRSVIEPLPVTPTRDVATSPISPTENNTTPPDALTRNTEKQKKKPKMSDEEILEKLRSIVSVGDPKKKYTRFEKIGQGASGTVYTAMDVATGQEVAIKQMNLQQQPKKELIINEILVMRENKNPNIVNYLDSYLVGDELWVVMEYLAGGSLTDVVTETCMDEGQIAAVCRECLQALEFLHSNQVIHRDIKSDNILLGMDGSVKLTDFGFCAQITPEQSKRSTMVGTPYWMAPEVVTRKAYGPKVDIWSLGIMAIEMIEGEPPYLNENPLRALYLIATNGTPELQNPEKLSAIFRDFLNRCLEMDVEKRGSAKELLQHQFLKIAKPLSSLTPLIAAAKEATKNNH
Proto-oncogene tyrosine-protein kinase receptor Ret (Homo sapiens), P07949 [V804L], sequence (P07949 whole entry V804L): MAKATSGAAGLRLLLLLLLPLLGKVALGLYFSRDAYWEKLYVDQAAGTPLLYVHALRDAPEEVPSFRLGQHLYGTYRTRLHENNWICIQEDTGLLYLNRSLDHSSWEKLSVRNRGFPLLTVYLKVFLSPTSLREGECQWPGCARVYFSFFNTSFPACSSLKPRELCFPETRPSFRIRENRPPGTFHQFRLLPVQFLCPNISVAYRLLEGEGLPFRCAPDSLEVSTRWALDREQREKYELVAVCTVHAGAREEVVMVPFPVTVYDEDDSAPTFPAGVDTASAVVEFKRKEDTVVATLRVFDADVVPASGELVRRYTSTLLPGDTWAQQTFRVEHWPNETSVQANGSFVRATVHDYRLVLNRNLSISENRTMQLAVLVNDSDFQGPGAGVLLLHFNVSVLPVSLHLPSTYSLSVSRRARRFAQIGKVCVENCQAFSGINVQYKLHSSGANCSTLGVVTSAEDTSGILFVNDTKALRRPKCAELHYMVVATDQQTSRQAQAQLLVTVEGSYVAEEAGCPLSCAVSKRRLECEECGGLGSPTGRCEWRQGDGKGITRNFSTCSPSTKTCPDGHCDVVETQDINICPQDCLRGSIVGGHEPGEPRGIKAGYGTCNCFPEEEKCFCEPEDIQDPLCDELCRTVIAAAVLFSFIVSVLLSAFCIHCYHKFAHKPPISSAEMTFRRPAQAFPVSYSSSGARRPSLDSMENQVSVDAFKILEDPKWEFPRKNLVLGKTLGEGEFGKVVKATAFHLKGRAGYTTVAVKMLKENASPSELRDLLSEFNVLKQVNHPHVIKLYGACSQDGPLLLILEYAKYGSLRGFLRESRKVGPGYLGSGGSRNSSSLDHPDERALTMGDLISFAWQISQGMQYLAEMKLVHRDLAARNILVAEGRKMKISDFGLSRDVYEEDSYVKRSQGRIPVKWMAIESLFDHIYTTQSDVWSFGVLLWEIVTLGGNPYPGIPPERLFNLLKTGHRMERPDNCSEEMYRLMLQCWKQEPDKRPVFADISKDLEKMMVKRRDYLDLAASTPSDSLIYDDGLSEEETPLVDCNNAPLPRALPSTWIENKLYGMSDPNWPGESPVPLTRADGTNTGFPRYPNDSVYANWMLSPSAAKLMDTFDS
Tyrosine-protein kinase Fer (Homo sapiens), sequence (P16591 whole entry, looked up): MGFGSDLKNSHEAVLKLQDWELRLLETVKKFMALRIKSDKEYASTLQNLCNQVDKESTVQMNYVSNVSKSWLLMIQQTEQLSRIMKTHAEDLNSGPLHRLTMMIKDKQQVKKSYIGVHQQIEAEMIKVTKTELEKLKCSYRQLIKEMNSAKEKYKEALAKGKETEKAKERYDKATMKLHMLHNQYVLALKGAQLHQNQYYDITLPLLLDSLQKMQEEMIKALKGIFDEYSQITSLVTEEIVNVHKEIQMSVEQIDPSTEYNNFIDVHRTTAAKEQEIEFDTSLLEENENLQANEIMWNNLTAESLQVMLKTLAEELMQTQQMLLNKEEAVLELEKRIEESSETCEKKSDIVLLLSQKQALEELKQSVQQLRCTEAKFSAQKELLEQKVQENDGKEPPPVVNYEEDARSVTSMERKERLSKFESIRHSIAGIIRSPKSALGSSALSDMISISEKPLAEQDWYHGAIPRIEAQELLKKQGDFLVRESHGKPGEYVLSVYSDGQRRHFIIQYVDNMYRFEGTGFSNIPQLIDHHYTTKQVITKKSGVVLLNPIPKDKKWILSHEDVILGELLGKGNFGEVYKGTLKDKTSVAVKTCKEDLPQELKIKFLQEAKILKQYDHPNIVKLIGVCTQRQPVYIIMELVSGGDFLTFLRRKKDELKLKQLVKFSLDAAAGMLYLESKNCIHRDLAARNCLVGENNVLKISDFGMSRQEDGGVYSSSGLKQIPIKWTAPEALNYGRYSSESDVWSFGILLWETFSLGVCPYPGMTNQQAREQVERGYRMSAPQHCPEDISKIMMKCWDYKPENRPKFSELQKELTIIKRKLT
Serine/threonine-protein kinase PLK1 (Homo sapiens), sequence (P53350 whole entry): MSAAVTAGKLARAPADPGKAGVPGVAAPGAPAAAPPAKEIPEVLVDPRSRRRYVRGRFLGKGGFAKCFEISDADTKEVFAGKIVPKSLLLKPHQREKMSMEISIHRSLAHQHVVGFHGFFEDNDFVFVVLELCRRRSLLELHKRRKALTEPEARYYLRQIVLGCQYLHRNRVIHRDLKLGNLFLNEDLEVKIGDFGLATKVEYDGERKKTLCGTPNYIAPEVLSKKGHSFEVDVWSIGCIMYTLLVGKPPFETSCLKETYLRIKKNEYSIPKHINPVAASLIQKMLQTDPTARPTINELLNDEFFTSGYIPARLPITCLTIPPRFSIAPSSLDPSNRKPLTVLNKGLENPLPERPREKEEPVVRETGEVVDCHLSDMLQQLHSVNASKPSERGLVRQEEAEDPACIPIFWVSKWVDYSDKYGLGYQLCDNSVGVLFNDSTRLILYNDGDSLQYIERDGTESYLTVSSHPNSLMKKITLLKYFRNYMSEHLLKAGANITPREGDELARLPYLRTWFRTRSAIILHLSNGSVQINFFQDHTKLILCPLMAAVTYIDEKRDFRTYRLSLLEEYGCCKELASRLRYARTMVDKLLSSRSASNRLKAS
Macrophage-stimulating protein receptor (Homo sapiens), sequence (Q04912 25-304 limits assumed): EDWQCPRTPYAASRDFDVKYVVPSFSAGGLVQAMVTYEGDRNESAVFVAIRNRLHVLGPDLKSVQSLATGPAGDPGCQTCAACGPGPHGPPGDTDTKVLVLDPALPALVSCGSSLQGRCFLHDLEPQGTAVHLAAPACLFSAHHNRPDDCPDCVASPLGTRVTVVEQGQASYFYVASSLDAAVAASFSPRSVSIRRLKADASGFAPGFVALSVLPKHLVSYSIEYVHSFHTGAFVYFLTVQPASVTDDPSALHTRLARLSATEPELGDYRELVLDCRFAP
Macrophage-stimulating protein receptor (Homo sapiens), sequence (Q04912 310-1400 limits assumed): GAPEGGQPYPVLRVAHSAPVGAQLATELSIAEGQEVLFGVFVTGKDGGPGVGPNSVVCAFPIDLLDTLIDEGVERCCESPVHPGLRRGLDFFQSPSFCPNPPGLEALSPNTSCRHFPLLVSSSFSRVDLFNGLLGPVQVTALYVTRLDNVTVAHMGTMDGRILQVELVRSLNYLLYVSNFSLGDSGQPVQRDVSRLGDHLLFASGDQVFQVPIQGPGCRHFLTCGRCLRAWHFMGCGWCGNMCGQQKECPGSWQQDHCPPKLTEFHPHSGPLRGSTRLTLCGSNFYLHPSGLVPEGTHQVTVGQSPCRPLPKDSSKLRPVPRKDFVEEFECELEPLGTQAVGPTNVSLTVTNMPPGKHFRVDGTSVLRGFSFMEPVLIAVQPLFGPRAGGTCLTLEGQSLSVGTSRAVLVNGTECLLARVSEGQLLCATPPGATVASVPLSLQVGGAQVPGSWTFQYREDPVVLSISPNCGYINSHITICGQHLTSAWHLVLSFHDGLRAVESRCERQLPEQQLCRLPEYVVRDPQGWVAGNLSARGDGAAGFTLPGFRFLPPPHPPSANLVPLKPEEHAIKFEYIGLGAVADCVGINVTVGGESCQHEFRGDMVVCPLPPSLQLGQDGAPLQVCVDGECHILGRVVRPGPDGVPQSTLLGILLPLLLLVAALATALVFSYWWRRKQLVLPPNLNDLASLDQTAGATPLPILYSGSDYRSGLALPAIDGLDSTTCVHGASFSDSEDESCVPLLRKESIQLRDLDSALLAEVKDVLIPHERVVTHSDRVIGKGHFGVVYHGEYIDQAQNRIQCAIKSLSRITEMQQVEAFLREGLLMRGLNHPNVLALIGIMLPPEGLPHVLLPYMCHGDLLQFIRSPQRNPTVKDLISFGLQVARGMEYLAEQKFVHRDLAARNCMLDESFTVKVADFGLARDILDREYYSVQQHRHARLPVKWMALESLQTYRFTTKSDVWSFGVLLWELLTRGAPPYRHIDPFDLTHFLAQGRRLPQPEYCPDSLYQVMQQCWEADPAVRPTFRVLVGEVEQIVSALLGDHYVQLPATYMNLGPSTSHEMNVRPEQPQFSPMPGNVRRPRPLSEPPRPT
Tyrosine-protein kinase Yes (Homo sapiens), sequence (P07947 2-543 limits assumed): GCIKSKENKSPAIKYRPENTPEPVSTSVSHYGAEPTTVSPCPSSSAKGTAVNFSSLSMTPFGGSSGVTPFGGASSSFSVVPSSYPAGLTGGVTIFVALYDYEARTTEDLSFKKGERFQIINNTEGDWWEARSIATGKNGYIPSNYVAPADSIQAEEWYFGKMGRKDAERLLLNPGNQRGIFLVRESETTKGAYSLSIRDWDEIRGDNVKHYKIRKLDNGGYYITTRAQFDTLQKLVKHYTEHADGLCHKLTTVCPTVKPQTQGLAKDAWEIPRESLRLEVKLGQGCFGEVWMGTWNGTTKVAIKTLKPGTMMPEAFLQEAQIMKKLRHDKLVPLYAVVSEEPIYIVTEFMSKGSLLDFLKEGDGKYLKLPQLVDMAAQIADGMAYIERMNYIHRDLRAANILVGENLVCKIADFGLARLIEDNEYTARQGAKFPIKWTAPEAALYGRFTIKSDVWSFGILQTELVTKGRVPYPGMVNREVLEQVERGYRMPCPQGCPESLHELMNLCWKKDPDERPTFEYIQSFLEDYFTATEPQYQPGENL

Activity [1]	Activity [2]	Activity [3]	Activity [4]	Activity [5]	Activity [6]	Activity (Homo sapiens)	Activity [7]	Activity [8]	Activity [9]	Activity [10]	Activity [11]	Activity [12]	Structure (SMILES)
76%	105%	20%	112%	94%	8%	89%	99%	6%	128%	111%	105%	100%	COc1ccc(-c2nc3cc(-c4csc(C(=O)NCC(C)C)c4)cnc3[nH]2)cc1
77%	112%	11%	104%	92%	5%	97%	86%	5%	132%	104%	96%	95%	COc1ccc(-c2nc3cc(-c4csc(C(=O)NCCC(C)C)c4)cnc3[nH]2)cc1
76%	110%	30%	104%	88%	13%	82%	82%	15%	122%	100%	94%	103%	COc1ccc(-c2nc3cc(-c4csc(C(=O)NCC(C)(C)C)c4)cnc3[nH]2)cc1
